Source: ChEMBL document CHEMBL1909046, “DrugMatrix in vitro pharmacology data”

Tests used:
[1] = biological target: Receptor tyrosine-protein kinase erbB-2 (Homo sapiens, UniProt P04626); experiment: biochemical; type: cell-based, Insect cells;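 note: inhibition of HER2 kinase enzyme activity, measured with Poly(Glu:Tyr) as the phosphorylation substrate; in other assays of this panel Not Active means under 50% inhibition at 10 µM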
[2] = biological target: Aldo-keto reductase family 1 member B1 (Rattus norvegicus, UniProt P07943); type: tissue-based, Lens of camera-type eye;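 note: inhibition of aldose reductase enzyme activity, measured with DL-glyceraldehyde as the substrate; in other assays of this panel Not Active means under 50% inhibition at 10 µM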
[3] = biological target: T1, Angiotensin-converting enzyme (Oryctolagus cuniculus, UniProt P12822); experiment: biochemical; type: tissue-based, Lung;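 note: enzymatic inhibition of angiotensin-converting enzyme measured with FAPGG as the substrate; in other assays of this panel Not Active means under 50% inhibition at 10 µM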
T1 sequence (P12822 whole entry): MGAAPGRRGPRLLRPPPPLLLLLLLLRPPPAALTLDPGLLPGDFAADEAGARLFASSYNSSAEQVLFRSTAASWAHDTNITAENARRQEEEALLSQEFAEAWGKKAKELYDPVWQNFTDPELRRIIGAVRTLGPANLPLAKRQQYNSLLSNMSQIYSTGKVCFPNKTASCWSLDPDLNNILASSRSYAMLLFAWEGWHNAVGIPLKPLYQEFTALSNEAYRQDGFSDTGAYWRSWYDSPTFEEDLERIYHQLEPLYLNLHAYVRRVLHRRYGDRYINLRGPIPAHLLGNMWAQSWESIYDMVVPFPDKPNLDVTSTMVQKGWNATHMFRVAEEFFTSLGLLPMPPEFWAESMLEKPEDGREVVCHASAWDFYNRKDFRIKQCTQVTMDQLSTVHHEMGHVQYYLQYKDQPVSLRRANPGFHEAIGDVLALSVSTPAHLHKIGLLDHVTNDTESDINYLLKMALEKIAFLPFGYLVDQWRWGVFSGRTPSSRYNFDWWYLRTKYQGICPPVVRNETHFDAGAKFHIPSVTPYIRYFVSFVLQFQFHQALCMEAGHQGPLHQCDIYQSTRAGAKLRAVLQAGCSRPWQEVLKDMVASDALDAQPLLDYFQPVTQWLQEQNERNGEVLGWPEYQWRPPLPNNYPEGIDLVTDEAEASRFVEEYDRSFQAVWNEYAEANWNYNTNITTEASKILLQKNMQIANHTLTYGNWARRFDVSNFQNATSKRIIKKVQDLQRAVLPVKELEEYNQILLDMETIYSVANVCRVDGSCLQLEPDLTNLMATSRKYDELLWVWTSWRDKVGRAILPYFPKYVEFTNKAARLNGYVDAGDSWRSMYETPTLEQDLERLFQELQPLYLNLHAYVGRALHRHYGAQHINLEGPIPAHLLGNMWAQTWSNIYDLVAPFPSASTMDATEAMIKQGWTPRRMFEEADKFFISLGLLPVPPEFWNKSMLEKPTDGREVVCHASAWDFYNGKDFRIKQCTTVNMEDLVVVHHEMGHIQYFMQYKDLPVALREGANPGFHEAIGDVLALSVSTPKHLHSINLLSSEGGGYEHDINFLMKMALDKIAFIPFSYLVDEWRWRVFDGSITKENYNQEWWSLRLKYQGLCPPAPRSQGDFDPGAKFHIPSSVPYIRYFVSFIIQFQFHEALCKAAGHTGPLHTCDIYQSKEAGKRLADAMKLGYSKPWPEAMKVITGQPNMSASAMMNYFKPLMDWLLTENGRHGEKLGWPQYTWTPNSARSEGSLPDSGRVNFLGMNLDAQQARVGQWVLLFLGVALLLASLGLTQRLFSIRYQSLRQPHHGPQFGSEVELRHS

[4] = biological target: Matrix metalloproteinase-9 (Homo sapiens, UniProt P14780); type: cell-based;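 note: inhibition of isolated MMP-9 enzyme activity toward a synthetic peptide substrate, from the DrugMatrix protease screening panel; in other assays of this panel Not Active means under 50% inhibition at 10 µM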
[5] = DRUGMATRIX: Glutamate, Kainate radioligand binding (ligand: [3H] Kainic acid); type: cell membranes, Rattus norvegicus, Wistar, Brain, Membrane; settings: Not Active = under 50% inhibition at 10 µM
Cytochrome P450 2A6 = biological target: T2, Cytochrome P450 2A6 (Homo sapiens, UniProt P11509); settings: bti-tn-5b1-4; note: in other assays of this panel Not Active means under 50% inhibition at 10 µM
T2 sequence (P11509 whole entry): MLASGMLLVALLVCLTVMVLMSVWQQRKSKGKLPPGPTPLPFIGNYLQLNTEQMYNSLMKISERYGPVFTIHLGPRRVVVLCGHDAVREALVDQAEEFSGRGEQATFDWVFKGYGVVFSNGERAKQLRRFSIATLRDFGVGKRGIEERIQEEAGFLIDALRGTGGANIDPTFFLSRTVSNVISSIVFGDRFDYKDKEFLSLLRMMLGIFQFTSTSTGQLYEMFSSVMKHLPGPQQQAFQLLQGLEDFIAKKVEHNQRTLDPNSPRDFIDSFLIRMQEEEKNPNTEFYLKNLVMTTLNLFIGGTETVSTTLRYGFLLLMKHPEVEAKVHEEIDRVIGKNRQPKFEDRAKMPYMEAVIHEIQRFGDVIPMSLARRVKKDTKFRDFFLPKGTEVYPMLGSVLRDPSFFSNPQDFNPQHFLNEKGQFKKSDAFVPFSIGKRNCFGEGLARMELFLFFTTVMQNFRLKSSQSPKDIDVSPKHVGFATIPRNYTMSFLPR

[6] = biological target: T3, Alpha-2A adrenergic receptor (Homo sapiens, UniProt P08913); type: cell membranes, Sf9, Membrane; note: in other assays of this panel Not Active means under 50% inhibition at 10 µM
T3 sequence (P08913 whole entry): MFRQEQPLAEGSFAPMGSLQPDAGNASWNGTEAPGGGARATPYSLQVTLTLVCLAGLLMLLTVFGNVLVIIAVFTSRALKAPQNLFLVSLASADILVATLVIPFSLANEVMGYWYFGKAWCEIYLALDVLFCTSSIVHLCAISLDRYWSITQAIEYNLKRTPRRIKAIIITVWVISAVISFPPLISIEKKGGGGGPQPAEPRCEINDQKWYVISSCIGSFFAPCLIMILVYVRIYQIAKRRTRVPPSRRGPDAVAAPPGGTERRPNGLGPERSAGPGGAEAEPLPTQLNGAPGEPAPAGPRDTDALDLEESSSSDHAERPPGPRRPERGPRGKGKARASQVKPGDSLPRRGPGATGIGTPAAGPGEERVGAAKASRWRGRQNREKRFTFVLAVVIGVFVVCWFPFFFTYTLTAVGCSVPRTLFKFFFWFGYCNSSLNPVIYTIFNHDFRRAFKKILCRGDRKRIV

Caspase-1 = biological target: T4, Caspase-1 (Homo sapiens, UniProt P29466); parameters: species or system Escherichia coli
T4 sequence (P29466 whole entry): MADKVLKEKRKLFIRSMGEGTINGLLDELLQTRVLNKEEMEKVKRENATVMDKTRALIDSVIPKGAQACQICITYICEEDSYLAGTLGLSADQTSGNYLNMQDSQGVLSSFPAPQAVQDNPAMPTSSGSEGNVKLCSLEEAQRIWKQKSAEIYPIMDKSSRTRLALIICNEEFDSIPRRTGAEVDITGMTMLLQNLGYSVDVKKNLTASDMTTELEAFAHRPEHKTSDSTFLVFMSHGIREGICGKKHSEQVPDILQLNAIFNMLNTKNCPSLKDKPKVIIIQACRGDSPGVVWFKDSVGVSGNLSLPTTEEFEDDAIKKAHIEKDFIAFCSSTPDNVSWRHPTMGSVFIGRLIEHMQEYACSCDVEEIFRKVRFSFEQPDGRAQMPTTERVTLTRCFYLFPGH

Receptor tyrosine-protein kinase erbB-2, sequence (P04626 whole entry): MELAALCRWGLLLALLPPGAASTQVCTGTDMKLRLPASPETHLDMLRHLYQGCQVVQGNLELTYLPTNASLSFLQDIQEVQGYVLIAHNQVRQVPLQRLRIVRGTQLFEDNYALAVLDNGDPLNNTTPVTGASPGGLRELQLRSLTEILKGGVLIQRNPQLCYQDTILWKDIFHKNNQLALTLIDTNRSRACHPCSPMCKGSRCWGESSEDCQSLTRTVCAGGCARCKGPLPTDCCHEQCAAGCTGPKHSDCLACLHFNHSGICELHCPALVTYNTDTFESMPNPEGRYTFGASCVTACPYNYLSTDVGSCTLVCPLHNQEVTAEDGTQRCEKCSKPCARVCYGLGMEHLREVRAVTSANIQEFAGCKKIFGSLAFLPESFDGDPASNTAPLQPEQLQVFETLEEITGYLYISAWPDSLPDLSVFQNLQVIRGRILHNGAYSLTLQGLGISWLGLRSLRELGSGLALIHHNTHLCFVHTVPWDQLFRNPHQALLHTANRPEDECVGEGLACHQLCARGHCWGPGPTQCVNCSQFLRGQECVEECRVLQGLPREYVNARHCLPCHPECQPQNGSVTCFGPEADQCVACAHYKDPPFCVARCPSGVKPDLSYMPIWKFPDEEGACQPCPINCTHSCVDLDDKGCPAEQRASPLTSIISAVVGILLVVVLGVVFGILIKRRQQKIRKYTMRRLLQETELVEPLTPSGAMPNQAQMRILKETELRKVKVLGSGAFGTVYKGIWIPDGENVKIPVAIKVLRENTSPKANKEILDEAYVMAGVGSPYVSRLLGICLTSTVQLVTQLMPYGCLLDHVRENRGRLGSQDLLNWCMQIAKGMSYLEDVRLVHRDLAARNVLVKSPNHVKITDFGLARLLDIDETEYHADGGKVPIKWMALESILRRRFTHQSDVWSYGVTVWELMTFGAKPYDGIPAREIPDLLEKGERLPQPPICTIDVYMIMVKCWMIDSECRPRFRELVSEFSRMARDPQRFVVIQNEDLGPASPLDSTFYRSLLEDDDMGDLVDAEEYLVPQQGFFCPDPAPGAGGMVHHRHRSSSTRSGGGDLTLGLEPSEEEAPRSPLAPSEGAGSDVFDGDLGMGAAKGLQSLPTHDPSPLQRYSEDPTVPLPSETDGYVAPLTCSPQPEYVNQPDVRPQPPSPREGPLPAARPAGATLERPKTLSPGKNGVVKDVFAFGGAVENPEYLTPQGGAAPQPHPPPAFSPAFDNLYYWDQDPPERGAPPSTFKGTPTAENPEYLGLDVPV
Matrix metalloproteinase-9, sequence (P14780 whole entry): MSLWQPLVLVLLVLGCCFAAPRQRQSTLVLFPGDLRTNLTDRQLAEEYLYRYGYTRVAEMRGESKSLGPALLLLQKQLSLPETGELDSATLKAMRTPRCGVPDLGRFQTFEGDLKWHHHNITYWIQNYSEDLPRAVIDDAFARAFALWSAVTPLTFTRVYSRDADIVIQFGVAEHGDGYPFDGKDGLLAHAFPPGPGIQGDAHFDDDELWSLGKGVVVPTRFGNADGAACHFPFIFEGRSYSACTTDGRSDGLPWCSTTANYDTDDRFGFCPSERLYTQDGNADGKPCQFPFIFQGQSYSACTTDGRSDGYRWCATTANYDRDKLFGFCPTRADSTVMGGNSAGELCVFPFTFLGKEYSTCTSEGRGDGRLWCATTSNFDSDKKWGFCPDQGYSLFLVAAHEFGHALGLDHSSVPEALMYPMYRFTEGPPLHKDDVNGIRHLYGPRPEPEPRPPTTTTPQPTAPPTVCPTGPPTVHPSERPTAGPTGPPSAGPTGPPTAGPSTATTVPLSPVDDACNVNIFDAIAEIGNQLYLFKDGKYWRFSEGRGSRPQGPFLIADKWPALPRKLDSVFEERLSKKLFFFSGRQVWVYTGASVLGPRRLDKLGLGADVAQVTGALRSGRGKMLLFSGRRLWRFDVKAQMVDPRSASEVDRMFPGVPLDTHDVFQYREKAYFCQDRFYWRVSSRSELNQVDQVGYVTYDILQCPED

Compound | IC50 ([1]; insect cells) | IC50 [2] | IC50 [3] | IC50 [4] | IC50 [5] | Ki [5] | IC50 (Cytochrome P450 2A6) | Ki (Cytochrome P450 2A6) | IC50 ([6]; sf9) | IC50 (Caspase-1) | IC50 ([6]; read-out: IC50) [nM] | Ki ([6]; read-out: Ki) [nM] | IC50 ([1]; read-out: IC50) [nM]
CC(C)n1c(/C=C/C(O)CC(O)CC(=O)O)c(-c2ccc(F)cc2)c2ccccc21 (stereo unspecified) [FLUVASTATIN] | Not Active | Not Active | Not Active | Not Active | Not Active | Not Active | Not Active | Not Active | Not Active | Not Active | – | – | –
CN1C[C@H](C(=O)N[C@]2(C)O[C@@]3(O)[C@@H]4CCCN4C(=O)[C@H](Cc4ccccc4)N3C2=O)C=C2c3cccc4[nH]cc(c34)C[C@H]21 [ERGOTAMINE] | Not Active | Not Active | Not Active | Not Active | Not Active | Not Active | Not Active | Not Active | – | Not Active | 2.12 | 0.796 | –
CC(=O)OCC(=O)[C@@]1(OC(C)=O)[C@@H](C)C[C@H]2[C@@H]3C[C@H](F)C4=CC(=O)C=C[C@]4(C)[C@@]3(F)[C@@H](O)C[C@@]21C [DIFLORASONE DIACETATE] | Not Active | Not Active | Not Active | Not Active | Not Active | Not Active | Not Active | Not Active | Not Active | Not Active | – | – | –
CC1(C)S[C@@H]2[C@H](NC(=O)[C@H](N)c3ccc(O)cc3)C(=O)N2[C@H]1C(=O)O [AMOXICILLIN] | Not Active | Not Active | Not Active | Not Active | Not Active | Not Active | Not Active | Not Active | Not Active | Not Active | – | – | –
C=C(C)[C@@H]1[C@H]2OC(=O)[C@@H]1[C@]1(O)C[C@H]3O[C@]34C(=O)O[C@H]2[C@]14C [PICROTOXININ] | Not Active | Not Active | Not Active | Not Active | Not Active | Not Active | Not Active | Not Active | Not Active | Not Active | – | – | –
c1ccc2c(c1)cc1ccc3cccc4ccc2c1c34 | – | Not Active | Not Active | Not Active | Not Active | Not Active | Not Active | Not Active | Not Active | Not Active | – | – | 41500
C[C@]12CCC(=O)C=C1CC[C@@H]1[C@@H]2C(=O)C[C@@]2(C)[C@H]1CC[C@]2(O)C(=O)CO [CORTISONE] | Not Active | Not Active | Not Active | Not Active | Not Active | Not Active | Not Active | Not Active | Not Active | Not Active | – | – | –
CC[C@@]1(O)C(=O)OCc2c1cc1n(c2=O)Cc2cc3ccccc3nc2-1 [CAMPTOTHECIN] | Not Active | Not Active | Not Active | Not Active | Not Active | Not Active | Not Active | Not Active | Not Active | Not Active | – | – | –
COc1ccc2c(c1)c(CC(=O)OCC(=O)O)c(C)n2C(=O)c1ccc(Cl)cc1 [ACEMETACIN] | Not Active | Not Active | Not Active | Not Active | Not Active | Not Active | Not Active | Not Active | Not Active | Not Active | – | – | –
N=C(N)NCCCCNC(=N)N.O=S(=O)(O)O [ARCAINE SULFATE] | Not Active | Not Active | Not Active | Not Active | Not Active | Not Active | Not Active | Not Active | Not Active | Not Active | – | – | –
CCCCOC(=O)c1ccc(N)cc1 [BUTAMBEN] | Not Active | Not Active | Not Active | Not Active | Not Active | Not Active | Not Active | Not Active | Not Active | Not Active | – | – | –
CCOC(=O)c1ccc(N)cc1 [BENZOCAINE] | Not Active | Not Active | Not Active | Not Active | Not Active | Not Active | Not Active | Not Active | Not Active | Not Active | – | – | –
